Source: patent US20220000964A1, “Compositions and Methods for Regulating Homeostasis of Chondrocytes, Extracellular Matrix, Articular Cartilage, and Phenotype of Arthritis” (Unigen, Inc., priority 2020, published 2022)
Read-outs that look alike come from different tables or passages of the source.

Experiments:
Type in all cases: in vivo, rat
MIA-induced OA rats [1] = assay: MIA-induced OA rats, pain sensitivity (paw withdrawal threshold, Randall-Salitto); conditions: 10 mg/kg oral; for inhibition at 10 mg/kg: Rattus norvegicus, po, read-out: Knee compression sensitivity, percent inhibition against vehicle treated MIA rats
Text: The MIA-induced OA disease model in rats is a standardized model most frequently used to mimic human OA (Lee et al., 2014). The model involves inoculation of MIA into a femorotibial joint pocket that induces pain responses in the ipsilateral limb accompanied by progressive cartilage degradation. Intra-articular injection of MIA disrupts chondrocyte glycolysis by inhibiting […] and results in chondrocyte death, neovascularization, subchondral bone necrosis and collapse, as well as inflammation (Guzman et al., 2003). These phenotypic characteristics make the model very attractive to evaluate compounds for their anti-inflammatory, analgesic and/or potential disease-modifying activities as it shares similar disease pathology to the human OA. As a result, we selected this validated in vivo model to investigate the effect of AMK in mitigating pain sensitivity, regulating the phenotype of joint tissue and maintaining articular structural integrity after being administered orally for 6 weeks.
(§1) Treatment started a week before MIA injection. Animals were randomized into five groups of 10 rats per group as G1=normal, G2=vehicle (0.5% CMC-Na solution), G3=Diclofenac (10 mg/kg, Lot #W08B043, Ward Hill, Mass.), G4=AMK (100 mg/kg) and G5=AMK (300 mg/kg), were orally gavaged with respective treatment. On the induction day, isoflurane (Lot #B66H15A, Piramal Enterprise Ltd. Andhra Pradesh, India) anesthetized rats were injected with 0.8 mg of MIA (Lot #A0352046, Acros Organics, New Jersey, USA) in 50 μL saline solution into the intra-articular pocket of left femorotibial (knee) joint using 26 G needle an hour after treatment. Normal control rats were injected with an equal volume of saline. Paw withdrawal thresholds as a result of constant pressure applied to the affected joint as a measure of pain sensitivity were taken once a week using Randall-Salitto Anesthesiometer (IITC, USA) and treatment lasted for 6 weeks. Body weights were measured once a week to calculate the respective weekly dosage of each group. Urine was collected at the end of study using metabolic cages. Blood samples were collected to isolate serum for biomarker analysis. At necropsy, animals were asphyxiated with CO2 and the femorotibial joint was carefully dissected out, fixed in 10% buffered formalin and sent to Nationwide Histology (Veradale, Wash., USA) for further histopathology analysis. The fixed specimens were then decalcified with Calci-Clear Rapid for 1 and a half days and embedded in paraffin. Standardized […] serial sections were obtained at the medial and lateral mid-condylar level in the sagittal plane and were stained with hematoxylin and eosin (HE) and Safranin O-fast green to enable evaluation of proteoglycan content. A modified Mankin system (Mankin et al., 1981) was used to score structural and cellular alterations of articular components as indications of disease progression and/or treatment efficacy. The histological analysis was conducted by a certified Pathologist at Nationwide Histology.

MIA-induced OA rats [2] = assay: MIA-induced OA rats, histopathology (modified Mankin); conditions: 10 mg/kg
Procedure: as §1

Sprague Dawley rats = assay: Hot plate test, topical application, paw withdrawal latency; conditions: dose (%): Ibuprofen 5, Capsaicin 0.5, Diclofenac 1, others 5
Text: Repeated application of anti-inflammatory compounds or extracts topically at the site of thermal contact (noxious stimulus) may cause desensitization of the peripheral afferent pain receptors to produce a delay in response time. A longer change in reaction time could be interpreted as an anti-nociceptive effect of the applied compound. To evaluate whether prepared plant extracts and compositions could provide anti-nociceptive activity, rats received orally-active anti-inflammatory extracts formulated in 2% Aloe vera gel at 5% concentration topically on their hind paws. The applied preparations on each paw were massaged at least 60 times in a circular motion into the skin until the applied content appeared visually absorbed. The procedure was repeated 3 times, every 30 minutes, before placing the animals on a preheated hot plate set to 53° C. The paw withdrawal latency was calculated as the time elapsed from the initial placement of the rat onto the hotplate to the withdrawal (or licking or shaking) of the hind paw in response to the thermal stimulus. Animals were immediately removed when this response was observed.
The anti-pain activity of medicinal plant extracts was tested on a hot plate set at 53° C. Test materials at 5% concentrations were topically applied at 20 μl/paw to the hind paws of both right and left paws of Sprague Dawley rats (n=10 per group). Applications of these extracts were carried out every 30 minutes for a total of 90 minutes. Within these 90 minutes, rats received a total of 60 μl/paw of the test article per rat. At 5% concentration, each rat received 3 mg/paw of the test articles. Due to the solubility characteristics of the compounds, two types of vehicles, V1=Dimethyl sulfoxide (DMSO)+propylene glycol (PG)+Aloe (2%), and V2=DMSO+OIL+PG, were used. Percent changes and P-values for statistical significance were determined using respective vehicles for each test material. The vehicle used for each material has been indicated in the parenthesis next to the test material. […] These increases in anti-pain activity were statistically significant. […] This percent change was statistically significant when compared to its respective vehicle.

IL-6 = assay: MIA-induced OA rats, serum IL-6; conditions: 10 mg/kg
Procedure: Treatment started a week before MIA injection. […] On the induction day, isoflurane (Lot #B66H15A, Piramal Enterprise Ltd. Andhra Pradesh, India) anesthetized rats were injected with 0.8 mg of MIA (Lot #A0352046, Acros Organics, New Jersey, USA) in 50 μL saline solution into the intra-articular pocket of left femorotibial (knee) joint using 26 G needle an hour after treatment. Normal control rats were injected with an equal volume of saline. […] Body weights were measured once a week to calculate the respective weekly dosage of each group. […] The fixed specimens were then decalcified with Calci-Clear Rapid for 1 and a half days and embedded in paraffin. […] The histological analysis was conducted by a certified Pathologist at Nationwide Histology.

SMILES: O=C(O)Cc1ccccc1Nc1c(Cl)cccc1Cl [Diclofenac]
- inhibition at 10 mg/kg (MIA-induced OA rats [1]; Wk-0): 0.3%
- inhibition at 10 mg/kg (MIA-induced OA rats [1]; Wk-1): 19.7%
- inhibition at 10 mg/kg (MIA-induced OA rats [1]; Wk-2): 24.1%
- inhibition at 10 mg/kg (MIA-induced OA rats [1]; Wk-3): 28.3%
- inhibition at 10 mg/kg (MIA-induced OA rats [1]; Wk-4): 30.8%
- inhibition at 10 mg/kg (MIA-induced OA rats [1]; wk-5): 31.1%
- Knee compression sensitivity (Mean ± SD) (MIA-induced OA rats [1]; Wk-0): 243.1 ± 2.4
- Knee compression sensitivity (Mean ± SD) (MIA-induced OA rats [1]; Wk-1): 190.9 ± 2.3
- Knee compression sensitivity (Mean ± SD) (MIA-induced OA rats [1]; Wk-2): 190.5 ± 2.6
- Knee compression sensitivity (Mean ± SD) (MIA-induced OA rats [1]; Wk-3): 183.8 ± 2.3
- Knee compression sensitivity (Mean ± SD) (MIA-induced OA rats [1]; Wk-4): 183.3 ± 1.7
- Knee compression sensitivity (Mean ± SD) (MIA-induced OA rats [1]; wk-5): 182.0 ± 1.1
- inhibition in catabolic inflammation and infiltration of inflammatory cells (MIA-induced OA rats [2]; MIA rats): 42.8%
- reduction in matrix GAG loss (MIA-induced OA rats [2]; MIA rats): 34.6%
- reduction of overall structural abnormalities (MIA-induced OA rats [2]; MIA rats): 41.1%
- Bone Erosion (Mean ± SE) (MIA-induced OA rats [2]; modified Mankin score): 3.08 ± 0.50
- Cartilage destruction (Mean ± SE) (MIA-induced OA rats [2]; modified Mankin score): 4.00 ± 0.76
- GAG Loss (Mean ± SE) (MIA-induced OA rats [2]; modified Mankin score): 3.08 ± 0.57
- Inflammation (Mean ± SE) (MIA-induced OA rats [2]; modified Mankin score): 1.31 ± 0.22
- Bone Erosion, reduction (value in parenthesis) (MIA-induced OA rats [2]; vs MIA+ vehicle): (40.8) %
- Cartilage destruction, reduction (value in parenthesis) (MIA-induced OA rats [2]; vs MIA+ vehicle): (41.10%
- GAG Loss, reduction (value in parenthesis) (MIA-induced OA rats [2]; vs MIA+ vehicle): (34.6) %
- Inflammation, reduction (value in parenthesis) (MIA-induced OA rats [2]; vs MIA+ vehicle): (42.8) %
- Paw withdrawal threshold (latency) Mean ± SD (Sprague Dawley rats; hot plate 53° C., topical, vehicle V1 (DMSO+PG+Aloe 2%), in s (unit assumed)): 6.93 ± 1.50
- % Change (Sprague Dawley rats; vs vehicle V1, negative = increased paw withdrawal latency): 2.8%
- IL-6 (IL-6): 114.2 ± 5.5 pg/mL
